#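 Dose response: 5 concentrations. Exposure: 48 h. Format: 96-well plates. Endpoint: linear interpolation; highest concentration if not reached. TGI marks complete inhibition of growth.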
# System: MDA-N
# Assay: DTP human tumour cell line panel, 48 h
row,SMILES,TGI [µM]
1,CCc1c(-c2ccccc2)[nH]c2ccccc2c1=O,> 100
2,Oc1ccc(-c2nc3ccc(F)cc3s2)cc1,70.6
3,COc1ccc(NC(C)=O)cc1N1C(=O)/C(=C\c2cccc(Oc3ccccc3)c2)S(=O)(=O)C1c1ccccc1 (stereo unspecified),53.6
4,OCCOCCO/N=C1\C(c2c(O)[nH]c3ccccc23)=Nc2ccccc21,26.7
5,Cc1nc2ccccc2c(=O)n1NC(=O)c1ccc(N)cc1,> 100

# System: SNB-19 CNS
# Assay: DTP human tumour cell line panel, 48 h
row,SMILES,TGI [µM]
1,CCc1c(-c2ccccc2)[nH]c2ccccc2c1=O,> 100
2,Oc1ccc(-c2nc3ccc(F)cc3s2)cc1,51.2
3,COc1ccc(NC(C)=O)cc1N1C(=O)/C(=C\c2cccc(Oc3ccccc3)c2)S(=O)(=O)C1c1ccccc1 (stereo unspecified),> 100
4,OCCOCCO/N=C1\C(c2c(O)[nH]c3ccccc23)=Nc2ccccc21,33.7
5,Cc1nc2ccccc2c(=O)n1NC(=O)c1ccc(N)cc1,> 100

# System: 786-0 renal
# Assay: DTP human tumour cell line panel, 48 h
row,SMILES,TGI [µM]
1,Oc1ccc(-c2nc3ccc(F)cc3s2)cc1,36
2,COc1ccc(NC(C)=O)cc1N1C(=O)/C(=C\c2cccc(Oc3ccccc3)c2)S(=O)(=O)C1c1ccccc1 (stereo unspecified),> 100
3,OCCOCCO/N=C1\C(c2c(O)[nH]c3ccccc23)=Nc2ccccc21,12.1
4,Cc1nc2ccccc2c(=O)n1NC(=O)c1ccc(N)cc1,> 100

# System: TK-10 renal
# Assay: DTP human tumour cell line panel, 48 h
row,SMILES,TGI [µM]
1,CCc1c(-c2ccccc2)[nH]c2ccccc2c1=O,> 100
2,Oc1ccc(-c2nc3ccc(F)cc3s2)cc1,34.1
3,COc1ccc(NC(C)=O)cc1N1C(=O)/C(=C\c2cccc(Oc3ccccc3)c2)S(=O)(=O)C1c1ccccc1 (stereo unspecified),> 100
4,OCCOCCO/N=C1\C(c2c(O)[nH]c3ccccc23)=Nc2ccccc21,20.9
5,Cc1nc2ccccc2c(=O)n1NC(=O)c1ccc(N)cc1,> 100

# System: HCT-116 colon
# Assay: DTP human tumour cell line panel, 48 h
row,SMILES,TGI [µM]
1,CCc1c(-c2ccccc2)[nH]c2ccccc2c1=O,> 100
2,Oc1ccc(-c2nc3ccc(F)cc3s2)cc1,32.9
3,COc1ccc(NC(C)=O)cc1N1C(=O)/C(=C\c2cccc(Oc3ccccc3)c2)S(=O)(=O)C1c1ccccc1 (stereo unspecified),31.3
4,OCCOCCO/N=C1\C(c2c(O)[nH]c3ccccc23)=Nc2ccccc21,3.95
5,Cc1nc2ccccc2c(=O)n1NC(=O)c1ccc(N)cc1,> 100

# System: IGROV1 ovarian
# Assay: DTP human tumour cell line panel, 48 h
row,SMILES,TGI [µM]
1,Oc1ccc(-c2nc3ccc(F)cc3s2)cc1,34.6
2,COc1ccc(NC(C)=O)cc1N1C(=O)/C(=C\c2cccc(Oc3ccccc3)c2)S(=O)(=O)C1c1ccccc1 (stereo unspecified),> 100
3,OCCOCCO/N=C1\C(c2c(O)[nH]c3ccccc23)=Nc2ccccc21,5.35
4,Cc1nc2ccccc2c(=O)n1NC(=O)c1ccc(N)cc1,> 100

# System: SK-MEL-5 melanoma
# Assay: DTP human tumour cell line panel, 48 h
row,SMILES,TGI [µM]
1,CCc1c(-c2ccccc2)[nH]c2ccccc2c1=O,> 100
2,Oc1ccc(-c2nc3ccc(F)cc3s2)cc1,38
3,COc1ccc(NC(C)=O)cc1N1C(=O)/C(=C\c2cccc(Oc3ccccc3)c2)S(=O)(=O)C1c1ccccc1 (stereo unspecified),> 100
4,OCCOCCO/N=C1\C(c2c(O)[nH]c3ccccc23)=Nc2ccccc21,6
5,Cc1nc2ccccc2c(=O)n1NC(=O)c1ccc(N)cc1,> 100

# System: RPMI-8226 leukemia
# Assay: DTP human tumour cell line panel, 48 h
row,SMILES,TGI [µM]
1,CCc1c(-c2ccccc2)[nH]c2ccccc2c1=O,> 100
2,Oc1ccc(-c2nc3ccc(F)cc3s2)cc1,63.9
3,COc1ccc(NC(C)=O)cc1N1C(=O)/C(=C\c2cccc(Oc3ccccc3)c2)S(=O)(=O)C1c1ccccc1 (stereo unspecified),73.6
4,OCCOCCO/N=C1\C(c2c(O)[nH]c3ccccc23)=Nc2ccccc21,> 33.2
5,Cc1nc2ccccc2c(=O)n1NC(=O)c1ccc(N)cc1,> 100

# System: SF-295 CNS
# Assay: DTP human tumour cell line panel, 48 h
row,SMILES,TGI [µM]
1,Oc1ccc(-c2nc3ccc(F)cc3s2)cc1,33.9
2,COc1ccc(NC(C)=O)cc1N1C(=O)/C(=C\c2cccc(Oc3ccccc3)c2)S(=O)(=O)C1c1ccccc1 (stereo unspecified),> 100
3,OCCOCCO/N=C1\C(c2c(O)[nH]c3ccccc23)=Nc2ccccc21,10.2
4,Cc1nc2ccccc2c(=O)n1NC(=O)c1ccc(N)cc1,> 100

# System: LOX IMVI melanoma
# Assay: DTP human tumour cell line panel, 48 h
row,SMILES,TGI [µM]
1,CCc1c(-c2ccccc2)[nH]c2ccccc2c1=O,> 100
2,Oc1ccc(-c2nc3ccc(F)cc3s2)cc1,39.7
3,COc1ccc(NC(C)=O)cc1N1C(=O)/C(=C\c2cccc(Oc3ccccc3)c2)S(=O)(=O)C1c1ccccc1 (stereo unspecified),> 100
4,OCCOCCO/N=C1\C(c2c(O)[nH]c3ccccc23)=Nc2ccccc21,11.6
5,Cc1nc2ccccc2c(=O)n1NC(=O)c1ccc(N)cc1,> 100

# System: HCC-2998 colon
# Assay: DTP human tumour cell line panel, 48 h
row,SMILES,TGI [µM]
1,CCc1c(-c2ccccc2)[nH]c2ccccc2c1=O,> 100
2,COc1ccc(NC(C)=O)cc1N1C(=O)/C(=C\c2cccc(Oc3ccccc3)c2)S(=O)(=O)C1c1ccccc1 (stereo unspecified),> 100
3,OCCOCCO/N=C1\C(c2c(O)[nH]c3ccccc23)=Nc2ccccc21,11.6
4,Cc1nc2ccccc2c(=O)n1NC(=O)c1ccc(N)cc1,> 100

# System: BT-549 breast
# Assay: DTP human tumour cell line panel, 48 h
row,SMILES,TGI [µM]
1,CCc1c(-c2ccccc2)[nH]c2ccccc2c1=O,> 100
2,Oc1ccc(-c2nc3ccc(F)cc3s2)cc1,37.4
3,COc1ccc(NC(C)=O)cc1N1C(=O)/C(=C\c2cccc(Oc3ccccc3)c2)S(=O)(=O)C1c1ccccc1 (stereo unspecified),> 100
4,OCCOCCO/N=C1\C(c2c(O)[nH]c3ccccc23)=Nc2ccccc21,18.3
5,Cc1nc2ccccc2c(=O)n1NC(=O)c1ccc(N)cc1,> 100

# System: A498 renal
# Assay: DTP human tumour cell line panel, 48 h
row,SMILES,TGI [µM]
1,CCc1c(-c2ccccc2)[nH]c2ccccc2c1=O,> 100
2,COc1ccc(NC(C)=O)cc1N1C(=O)/C(=C\c2cccc(Oc3ccccc3)c2)S(=O)(=O)C1c1ccccc1 (stereo unspecified),> 100
3,OCCOCCO/N=C1\C(c2c(O)[nH]c3ccccc23)=Nc2ccccc21,0.839
4,Cc1nc2ccccc2c(=O)n1NC(=O)c1ccc(N)cc1,> 100

# System: HL-60(TB) leukemia
# Assay: DTP human tumour cell line panel, 48 h
row,SMILES,TGI [µM]
1,CCc1c(-c2ccccc2)[nH]c2ccccc2c1=O,> 100
2,Oc1ccc(-c2nc3ccc(F)cc3s2)cc1,51.8
3,COc1ccc(NC(C)=O)cc1N1C(=O)/C(=C\c2cccc(Oc3ccccc3)c2)S(=O)(=O)C1c1ccccc1 (stereo unspecified),40.5
4,OCCOCCO/N=C1\C(c2c(O)[nH]c3ccccc23)=Nc2ccccc21,39.3
5,Cc1nc2ccccc2c(=O)n1NC(=O)c1ccc(N)cc1,> 100

# System: HOP-62 NSCLC
# Assay: DTP human tumour cell line panel, 48 h
row,SMILES,TGI [µM]
1,CCc1c(-c2ccccc2)[nH]c2ccccc2c1=O,> 100
